Experimental findings from ChEMBL document CHEMBL3621061 (J Med Chem, 2015) are described below.

Assay [1] can be described thus: Displacement of [3H]histamine from monkey histamine H4 receptor expressed in HEK293T cells. The settings on record: hek-293t. In kind it is cell-based, Macaca mulatta.
Assay [2] can be described thus: Displacement of [3H]histamine from dog histamine H4 receptor expressed in HEK293T cells. Type of assay: cell-based, Canis lupus familiaris. The settings on record: hek-293t. In general terms: In a radioligand displacement assay an active substance lowers the binding of a labelled ligand.
Assay [3] is described as follows: Displacement of [3H]histamine from monkey recombinant histamine H4 receptor. Also on record: species or system Macaca mulatta.
Assay [4] can be described thus: Displacement of [3H]histamine from dog recombinant histamine H4 receptor. Also on record: species or system Canis lupus familiaris.
In assay [5] the target is T1, Histamine H4 receptor (Cavia porcellus, UniProt Q91ZY3).
T1 sequence (Q91ZY3 whole entry): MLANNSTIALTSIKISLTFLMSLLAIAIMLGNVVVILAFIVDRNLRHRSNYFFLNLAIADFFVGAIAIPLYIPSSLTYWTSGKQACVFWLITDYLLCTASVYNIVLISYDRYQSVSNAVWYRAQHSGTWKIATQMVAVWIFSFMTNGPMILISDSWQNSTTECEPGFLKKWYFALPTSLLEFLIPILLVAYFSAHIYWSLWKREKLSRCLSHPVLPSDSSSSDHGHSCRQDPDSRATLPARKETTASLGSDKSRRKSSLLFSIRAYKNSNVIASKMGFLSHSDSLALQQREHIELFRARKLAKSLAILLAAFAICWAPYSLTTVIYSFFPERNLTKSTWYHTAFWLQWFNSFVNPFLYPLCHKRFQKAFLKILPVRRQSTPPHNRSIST

Consider `CN[C@@H]1CCN(c2cc(NCC3CC3)nc(N)n2)C1` [ADRIFORANT], for which the pKi was determined as 7.81 in assay [1] and 5.79 in assay [2].

Regarding `CC(C)c1cc(N2CC[C@@H](N)C2)nc(N)n1` [JNJ-39758979], the Ki in assay [3] is 25 nM; in assay [4], > 10000 nM.

For `NCCc1c[nH]cn1` [HISTAMINE], the Ki in assay [5] was determined as 6 nM.

Broadly, the pKi is the negative decadic logarithm of the Ki, by convention in mol/L. The term Ki denotes a measure of affinity in units of concentration, obtained from inhibition or displacement.
